For 23 molecules, EC50 results are on record in patent US20210155644A1, “CYCLOPENTENYL PURINE DERIVATIVE OR SALT THEREOF” (Fujifilm Corporation, priority 2018, published 2021).

Each structure is given as a SMILES string. Like-named read-outs stand apart in the source and are kept apart here.

This assay relates to adenovirus type 6 (ADV6). Put plainly: Evaluation of anti-adenovirus activity: CRL-11516 cells infected with ADV6, anti-hexon staining, count of stained cells. In kind it is cell-based. As for the experimental part: A system in which CRL-11516 cells (available from ATCC) were infected with adenovirus type 6 (hereinafter, referred to as ADV6) was constructed, and a test for evaluating the anti-adenovirus activity of the compound according to the embodiment of the present invention and the compound of Comparative Example was carried out using the system. The test for evaluating the anti-adenovirus activity was carried out according to the method described below.
CRL-11516 cells were added to a 96-well plate at a cell density of 1×10^4 cells/well and cultured at 37° C. for 24 hours. After the culture was completed, the cell culture liquid was removed, and a serial dilution (100 μL) of the compound according to the embodiment of the present invention or the compound of Comparative Example was added. ADV6 (corresponding to 50TCID50) was added thereto, followed by culturing at 37° C. for 48 hours.
After the culture was completed, the infected cells were stained using Adeno-X Rapid Titer Kit (manufactured by Takara Bio Inc.). 100% methanol was added thereto and the cells were fixed at −20° C. for 10 minutes. The plate was washed three times with phosphate buffered saline (hereinafter, referred to as PBS) and then Mouse Anti-Hexon Antibody was added thereto, followed by incubation at 37° C. for 1 hour. After the incubation was completed, the plate was washed three times with PBS, and Rat Anti-Mouse Antibody was added thereto, followed by incubation at 37° C. for 1 hour. After the incubation was completed, a mixed staining solution of Stable Peroxidase Buffer:DAB Substrate=10:1 was added thereto, followed by incubation at room temperature for 10 minutes for staining of the cells.
The number of dark brown-stained cells was counted under a microscope, and the concentration of the test drug that reduces the dark brown-stained cells by 50% was defined as EC50. EC50 values were calculated for the triplicate test results, and a mean value and a standard deviation thereof were determined.

The mark [1] stands for this setting: Human mastadenovirus C, 48 h, CRL-11516 cells infected with ADV6, 48 hours culture, concentration reducing dark brown-stained cells by 50%, read-out: Anti-AdV activity EC50.
Where [2] appears, read: CRL-11516 cells infected with ADV6, 48 hours culture, concentration reducing dark brown-stained cells by 50%, read-out: Anti-AdV activity EC50.
Setting [3] is: Human mastadenovirus C, CRL-11516 cells infected with ADV6, 48 hours culture, concentration reducing dark brown-stained cells by 50%, read-out: Anti-AdV activity EC50.

On to `CC(C)OC(=O)[C@H](C)N[P@](=O)(OC[C@@H]1C=C[C@H](n2cnc3c(OC(C)C)nc(N)nc32)C1)Oc1ccccc1` [Example 2-2-20, Isopropyl ((S)-(((1S,4R)-4-(2-amino-6-isopropoxy-9H-purin-9-yl)cyclopent-2-en-1-yl)methoxy) (phenoxy)phosphoryl)-L-alaninate], for which the EC50 under setting [1] fell in the range of 100 to 1000 nM.
Consider `CC(C)OC(=O)[C@H](C)NP(=O)(OC[C@@H]1C=C[C@H](n2cnc3c(Cl)nc(N)nc32)C1)Oc1ccccc1` (stereo partly drawn) [Example 2-2-1, isopropyl ((((1S,4R)-4-(2-amino-6-chloro-9H-purin-9-yl)cyclopent-2-en-1-yl)methoxy)(phenoxy)phosphoryl)-L-alaninate], for which the EC50 under setting [2] was 100 to 1000 nM.
`COc1nc(N)nc2c1ncn2[C@H]1C=C[C@@H](COP(=O)(OCCSC(=O)C(C)(C)C)Oc2ccccc2)C1` (stereo partly drawn) [Example 4-7-1, S-(2-(((((1 S,4R)-4-(2-amino-6-methoxy-9H-purin-9-yl)cyclopent-2-en-1-yl)methoxy) (phenoxy)phosphoryl)oxy)ethyl) 2,2-dimethylpropanethioate]: the EC50 (Human mastadenovirus C, 48 h, read-out: Anti-AdV activity EC50, CRL-11516 cells infected with ADV6, 48 hours culture, concentration reducing dark brown-stained cells by 50%) is 10 to 100 nM.
As for `COc1nc(N)nc2c1ncn2[C@H]1C=C[C@@H](COP(=O)(N[C@@H](C)C(=O)OC(C)C)Oc2ccccc2)C1` (stereo partly drawn) [Example 4-4-1, Isopropyl ((((1 S,4R)-4-(2-amino-6-methoxy-9H-purin-9-yl)cyclopent-2-en-1-yl)methoxy)(phenoxy)phosphoryl)-L-alaninate], the EC50 under setting [2] lay within 10 to 100 nM.
The same measure, in the same setting: the figure for `COC(=O)[C@H](C)NP(=O)(OC[C@@H]1C=C[C@H](n2cnc3c(OC)nc(N)nc32)C1)Oc1ccccc1` (stereo partly drawn) [Example 2-2-16, Methyl ((((1S,4R)-4-(2-amino-6-methoxy-9H-purin-9-yl)cyclopent-2-en-1-yl)methoxy) (phenoxy)phosphoryl)-L-alaninate] is 10 to 100 nM; for `COC(=O)[C@H](C)NP(=O)(OC[C@@H]1C=C[C@H](n2cnc3c(OC)nc(N)nc32)C1)Oc1ccccc1` (stereo partly drawn) [Example 4-2-2, methyl ((((1 S,4R)-4-(2-amino-6-methoxy-9H-purin-9-yl)cyclopent-2-en-1-yl)methoxy)(phenoxy)phosphoryl)-L-alaninate] it is 10 to 100 nM.
Regarding `COc1nc(N)nc2c1ncn2[C@H]1C=C[C@@H](COP(=O)(N[C@@H](C)C(=O)OC2CC2)Oc2ccccc2)C1` (stereo partly drawn) [Example 1-2-58, cyclopropyl ((((1S,4R)-4-(2-amino-6-methoxy-9H-purin-9-yl)cyclopent-2-en-1-yl)methoxy)(phenoxy)phosphoryl)-L-alaninate], under setting [1], the EC50 was 10 to 100 nM.
With `COc1nc(N)nc2c1ncn2[C@H]1C=C[C@@H](COP(=O)(N[C@@H](C)C(=O)OC(C)C)OCCSC(=O)C(C)(C)C)C1` (stereo partly drawn) [Example 1-2-74, isopropyl ((((1S,4R)-4-(2-amino-6-methoxy-9H-purin-9-yl)cyclopent-2-en-1-yl)methoxy)(2-(pivaloylthio)ethoxy)phosphoryl)-L-alaninate], under setting [3], the EC50 lay in the range of 10 to 100 nM.
Take `COC(=O)[C@H](C)NP(=O)(OC[C@@H]1C=C[C@H](n2cnc3c(Cl)nc(N)nc32)C1)Oc1ccc(Cl)cc1` (stereo partly drawn) [Example 4-5-1, methyl ((((1 S,4R)-4-(2-amino-6-chloro-9H-purin-9-yl)cyclopent-2-en-1-yl)methoxy)(4-chlorophenoxy)phosphoryl)-L-alaninate]: under setting [1], the EC50 is below 10 nM.
Consider `CC(C)OC(=O)[C@H](C)NP(=O)(OCCSC(=O)C(C)(C)C)OC[C@@H]1C=C[C@H](n2cnc3c(Cl)nc(N)nc32)C1` (stereo partly drawn) [Example 1-2-73, isopropyl ((((1S,4R)-4-(2-amino-6-chloro-9H-purin-9-yl)cyclopent-2-en-1-yl)methoxy)(2-(pivaloylthio)ethoxy)phosphoryl)-L-alaninate], for which the EC50 under setting [3] was below 10 nM.
Regarding `COC(=O)[C@H](C)NP(=O)(OC[C@@H]1C=C[C@H](n2cnc3c(N(C)C)nc(N)nc32)C1)Oc1ccc(Br)cc1` (stereo partly drawn) [Example 1-2-45, Methyl ((((1S,4R)-4-(2-amino-6-(dimethylamino)-9H-purin-9-yl)cyclopent-2-en-1-yl)methoxy)(4-bromophenoxy)phosphoryl)-L-alaninate], under setting [1], the EC50 was below 10 nM.
In the case of `COc1nc(N)nc2c1ncn2[C@H]1C=C[C@@H](COP(=O)(N[C@@H](CC(C)C)C(=O)OC(C)C)Oc2ccccc2)C1` (single isomer, unassigned) [Example 7-1-2], under setting [2], the EC50 is 100 to 1000 nM.
`COC(=O)[C@H](C)NP(=O)(OC[C@@H]1C=C[C@H](n2cnc3c(NC4CC4)nc(N)nc32)C1)Oc1ccccc1` (stereo partly drawn) [Example 2-2-3, Methyl ((((1S,4R)-4-(2-amino-6-(cyclopropyl-amino)-9H-purin-9-yl)cyclopent-2-en-1-yl)methoxy) (phenoxy)phosphoryl)-L-alaninate]: the EC50 under setting [1] lay within 10 to 100 nM.
With `COC(=O)[C@H](C)NP(=O)(OC[C@@H]1C=C[C@H](n2cnc3c(Cl)nc(N)nc32)C1)Oc1ccc(Cl)cc1` (stereo partly drawn) [Example 4-5-2, methyl ((((1 S,4R)-4-(2-amino-6-chloro-9H-purin-9-yl)cyclopent-2-en-1-yl)methoxy)(4-chlorophenoxy)phosphoryl)-L-alaninate], the EC50 under setting [2] was 10 to 100 nM.
Take `CC(C)OC(=O)[C@H](C)N[P@@](=O)(OC[C@@H]1C=C[C@H](n2cnc3c(N(C)C)nc(N)nc32)C1)Oc1ccccc1` [Example 2-2-25, isopropyl ((R)-(((1S,4R)-4-(2-amino-6-(dimethylamino)-9H-purin-9-yl)cyclopent-2-en-1-yl)methoxy)(phenoxy)phosphoryl)-L-alaninate]: under setting [1], the EC50 lay within 10 to 100 nM.
The same measure, in the same setting: the figure for `COc1cccc(OP(=O)(N[C@@H](C)C(=O)OC(C)C)OC[C@@H]2C=C[C@H](n3cnc4c(OC)nc(N)nc43)C2)c1` (stereo partly drawn) [Example 6-2-7, isopropyl ((((1S,4R)-4-(2-amino-6-methoxy-9H-purin-9-yl)cyclopent-2-en-1-yl)methoxy)(3-methoxyphenoxy)phosphoryl)-L-alaninate] is 10 to 100 nM.
As for `COc1nc(N)nc2c1ncn2[C@H]1C=C[C@@H](COP(=O)(OCCSC(=O)C(C)(C)C)Oc2ccccc2)C1` (stereo partly drawn) [Example 4-7-2, S-(2-(((((1 S,4R)-4-(2-amino-6-methoxy-9H-purin-9-yl)cyclopent-2-en-1-yl)methoxy) (phenoxy)phosphoryl)oxy)ethyl) 2,2-dimethylpropanethioate], the EC50 (read-out: Anti-AdV activity EC50, CRL-11516 cells infected with ADV6, 48 hours culture, concentration reducing dark brown-stained cells by 50%) lay within 10 to 100 nM.
Regarding `COC(=O)[C@H](C)NP(=O)(OC[C@@H]1C=C[C@H](n2cnc3c(N)nc(N)nc32)C1)Oc1ccc(Br)cc1` (stereo partly drawn) [Example 1-2-6, Methyl ((4-bromophenoxy)(((1S,4R)-4-(2,6-diamino-9H-purin-9-yl)cyclopent-2-en-1-yl)methoxy)phosphoryl)-L-alaninate], under setting [1], the EC50 is 100 to 1000 nM.
Turning to `COC(=O)[C@H](C)NP(=O)(OCCSC(=O)C(C)(C)C)OC[C@@H]1C=C[C@H](n2cnc3c(OC)nc(N)nc32)C1` (stereo partly drawn) [Example 1-2-12, methyl ((((1S,4R)-4-(2-amino-6-methoxy-9H-purin-9-yl)cyclopent-2-en-1-yl)methoxy)(2-(pivaloylthio)ethoxy)phosphoryl)-L-alaninate], under setting [3], the EC50 is below 10 nM.
For `CC(C)OC(=O)[C@H](C)N[P@](=O)(OC[C@@H]1C=C[C@H](n2cnc3c(OC4CCC4)nc(N)nc32)C1)Oc1ccccc1` [Example 2-2-36, Isopropyl ((S)-(((1S,4R)-4-(2-amino-6-cyclobutoxy-9H-purin-9-yl)cyclopent-2-en-1-yl)methoxy)(phenoxy)phosphoryl)-L-alaninate], the EC50 under setting [1] fell in the range of 100 to 1000 nM.
In the case of `COC(=O)[C@H](C)NP(=O)(OCCSC(=O)C(C)(C)C)OC[C@@H]1C=C[C@H](n2cnc3c(OC)nc(N)nc32)C1` (stereo partly drawn) [Example 4-6-2, ((((1S,4R)-4-(2-amino-6-methoxy-9H-purin-9-yl)cyclopent-2-en-1-yl)methoxy)(2-(pivaloylthio)ethoxy)phosphoryl)-L-alaninate], under setting [2], the EC50 is below 10 nM.
For the molecule `CC(C)OC(=O)[C@H](C)NP(=O)(OC[C@@H]1C=C[C@H](n2cnc3c(Cl)nc(N)nc32)C1)Oc1ccc(Cl)cc1` (stereo partly drawn) [Example 1-2-70, isopropyl ((((1S,4R)-4-(2-amino-6-chloro-9H-purin-9-yl)cyclopent-2-en-1-yl)methoxy)(4-chlorophenoxy)phosphoryl)-L-alaninate], the EC50 under setting [1] fell in the range of 10 to 100 nM.
`COC(=O)C(C)(C)NP(=O)(OC[C@@H]1C=C[C@H](n2cnc3c(OC)nc(N)nc32)C1)Oc1ccc(Br)cc1` (stereo partly drawn) [Example 1-2-49, Methyl 2-(((((1S,4R)-4-(2-amino-6-methoxy-9H-purin-9-yl)cyclopent-2-en-1-yl)methoxy)(4-bromophenoxy)phosphoryl)amino)-2-methylpropanoate]: the EC50 under setting [1] was below 10 nM.
